Experimental data taken from PubChem BioAssay AID2060606 (Molecular Pharmacology Branch, DTP, NCI, 2025).
pIC50: −log10 of the molar value.

Tested on: 922993-354-T-J3-PDC complex spheroids, viability, % test/control
Experiment: Anticancer human tumor 922993-354-T-J3-PDC patient-derived endometrial carcinoma cell line growth inhibition [CLK]
Conditions: for pIC50: curve of first compound; for viability, T/C: stronger effect = lower value
Method in brief: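 Patient-derived tumor cells grown as complex spheroids with HUVEC endothelial cells and mesenchymal stem cells, treated with drug combinations. Concentrations descend in half-log steps from near clinical Cmax, or from 10 microM if Cmax unknown.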

[1] = second compound 0.0316 µM, first compound 0.0316 µM
[2] = second compound 0.0316 µM, first compound 0.1 µM
[3] = second compound 0.0316 µM, first compound 0.316 µM
[4] = second compound 0.0316 µM, first compound 1 µM
[5] = second compound 0.0316 µM, first compound 3.16 µM
[6] = second compound 0.0316 µM, first compound 10 µM
[7] = second compound 0.1 µM, first compound 0.0316 µM
[8] = second compound 0.1 µM, first compound 0.1 µM
[9] = second compound 0.1 µM, first compound 0.316 µM
[10] = second compound 0.1 µM, first compound 1 µM
[11] = second compound 0.1 µM, first compound 3.16 µM
[12] = second compound 0.1 µM, first compound 10 µM
[13] = second compound 0.316 µM, first compound 0.0316 µM
[14] = second compound 0.316 µM, first compound 0.1 µM
[15] = second compound 0.316 µM, first compound 0.316 µM
[16] = second compound 0.316 µM, first compound 1 µM
[17] = second compound 0.316 µM, first compound 3.16 µM
[18] = second compound 0.316 µM, first compound 10 µM
[19] = second compound 1 µM, first compound 0.0316 µM
[20] = second compound 1 µM, first compound 0.1 µM
[21] = second compound 1 µM, first compound 0.316 µM
[22] = second compound 1 µM, first compound 1 µM
[23] = second compound 1 µM, first compound 3.16 µM
[24] = second compound 1 µM, first compound 10 µM
[25] = second compound 3.16 µM, first compound 0.0316 µM
[26] = second compound 3.16 µM, first compound 0.1 µM
[27] = second compound 3.16 µM, first compound 0.316 µM
[28] = second compound 3.16 µM, first compound 1 µM
[29] = second compound 3.16 µM, first compound 3.16 µM
[30] = second compound 3.16 µM, first compound 10 µM
[31] = second compound 10 µM, first compound 0.0316 µM
[32] = second compound 10 µM, first compound 0.1 µM
[33] = second compound 10 µM, first compound 0.316 µM
[34] = second compound 10 µM, first compound 1 µM
[35] = second compound 10 µM, first compound 3.16 µM
[36] = second compound 10 µM, first compound 10 µM
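Further: spheroids exposed to the agents for 7 days before readout.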

`C=CC(=O)N1CCN(c2nc(=O)n(-c3c(C)ccnc3C(C)C)c3nc(-c4c(O)cccc4F)c(F)cc23)C(C)C1` (stereo unspecified) + CNC(=O)c1ccc(Nc2nc(OC3CCCC3)c3c(-c4ccc5nc(C)oc5c4)c[nH]c3n2)c(OC)c1 gave a pIC50 (second compound 0.0316 µM) of under 5.00, a pIC50 (second compound 0.1 µM) of under 5.00 and a pIC50 (second compound 0.316 µM) of under 5.00. It also gave a pIC50 (second compound 1 µM) of over 7.50, a pIC50 (second compound 3.16 µM) of over 7.50 and a pIC50 (second compound 10 µM) of over 7.50. It also gave a viability, T/C [1] of 106%, a viability, T/C [2] of 105% and a viability, T/C [3] of 102%. For the same molecule, the viability, T/C [4] was 103%, the viability, T/C [5] was 106% and the viability, T/C [6] was 78.6%. For the same molecule, the viability, T/C [7] was 86.2%, the viability, T/C [8] was 104% and the viability, T/C [9] was 101%. It also gave a viability, T/C [10] of 103%, a viability, T/C [11] of 103% and a viability, T/C [12] of 94.5%. It also gave a viability, T/C [13] of 66.9%, a viability, T/C [14] of 69% and a viability, T/C [15] of 64%. The viability, T/C [16] was 61.1%, the viability, T/C [17] was 69.3% and the viability, T/C [18] was 47.5%. The viability, T/C [19] was 33.8%, the viability, T/C [20] was 32.8% and the viability, T/C [21] was 34.6%. It also gave a viability, T/C [22] of 36.2%, a viability, T/C [23] of 41.4% and a viability, T/C [24] of 44.8%. It also gave a viability, T/C [25] of 34.3%, a viability, T/C [26] of 31.2% and a viability, T/C [27] of 30.6%. The viability, T/C [28] was 33.3%, the viability, T/C [29] was 36.4% and the viability, T/C [30] was 38.1%. For the same molecule, the viability, T/C [31] was 27.6%, the viability, T/C [32] was 28.6% and the viability, T/C [33] was 31.9%. It also gave a viability, T/C [34] of 33%, a viability, T/C [35] of 34.1% and a viability, T/C [36] of 37.3%.

Molecule `CCCS(=O)(=O)Nc1ccc(F)c(C(=O)c2c[nH]c3ncc(-c4ccc(Cl)cc4)cc23)c1F` + CNC(=O)c1ccc(Nc2nc(OC3CCCC3)c3c(-c4ccc5nc(C)oc5c4)c[nH]c3n2)c(OC)c1 has a pIC50 (second compound 0.0316 µM) of under 5.00, a pIC50 (second compound 0.1 µM) of under 5.00 and a pIC50 (second compound 0.316 µM) of 6.19. It also gave a pIC50 (second compound 1 µM) of over 7.50, a pIC50 (second compound 3.16 µM) of over 7.50 and a pIC50 (second compound 10 µM) of over 7.50. For the same molecule, the viability, T/C [1] was 96.5%, the viability, T/C [2] was 93.9% and the viability, T/C [3] was 109%. It also gave a viability, T/C [4] of 103%, a viability, T/C [5] of 90.9% and a viability, T/C [6] of 74.4%. It also gave a viability, T/C [7] of 110%, a viability, T/C [8] of 103% and a viability, T/C [9] of 109%. It also gave a viability, T/C [10] of 113%, a viability, T/C [11] of 85.2% and a viability, T/C [12] of 67.6%. The viability, T/C [13] was 70.8%, the viability, T/C [14] was 73.4% and the viability, T/C [15] was 57.9%. The viability, T/C [16] was 46.5%, the viability, T/C [17] was 49.1% and the viability, T/C [18] was 40.2%. For the same molecule, the viability, T/C [19] was 40.2%, the viability, T/C [20] was 32.9% and the viability, T/C [21] was 32.8%. It also gave a viability, T/C [22] of 35.4%, a viability, T/C [23] of 31.8% and a viability, T/C [24] of 24.3%. The viability, T/C [25] was 32%, the viability, T/C [26] was 31.3% and the viability, T/C [27] was 30.3%. The viability, T/C [28] was 30.2%, the viability, T/C [29] was 27.7% and the viability, T/C [30] was 24%. The viability, T/C [31] was 30.3%, the viability, T/C [32] was 31.7% and the viability, T/C [33] was 27.4%. The viability, T/C [34] was 29.6%, the viability, T/C [35] was 26.7% and the viability, T/C [36] was 23.1%.

`COC1C=CCC(C)C(C)S(=O)(=O)NC(=O)c2ccc3c(c2)N(CC2CCC21)CC1(CCCc2cc(Cl)ccc21)CO3` (stereo unspecified) + CNC(=O)c1ccc(Nc2nc(OC3CCCC3)c3c(-c4ccc5nc(C)oc5c4)c[nH]c3n2)c(OC)c1 was tested, and the pIC50 (second compound 0.0316 µM) was 5.20, the pIC50 (second compound 0.1 µM) was 5.17 and the pIC50 (second compound 0.316 µM) was 5.65. It also gave a pIC50 (second compound 1 µM) of over 7.50, a pIC50 (second compound 3.16 µM) of over 7.50 and a pIC50 (second compound 10 µM) of over 7.50. It also gave a viability, T/C [1] of 111%, a viability, T/C [2] of 117% and a viability, T/C [3] of 104%. The viability, T/C [4] was 98.9%, the viability, T/C [5] was 90.4% and the viability, T/C [6] was 25.6%. For the same molecule, the viability, T/C [7] was 114%, the viability, T/C [8] was 99.6% and the viability, T/C [9] was 107%. For the same molecule, the viability, T/C [10] was 105%, the viability, T/C [11] was 103% and the viability, T/C [12] was 23%. The viability, T/C [13] was 64.6%, the viability, T/C [14] was 70.2% and the viability, T/C [15] was 66.1%. For the same molecule, the viability, T/C [16] was 57%, the viability, T/C [17] was 47.5% and the viability, T/C [18] was 17.9%. It also gave a viability, T/C [19] of 33.7%, a viability, T/C [20] of 39% and a viability, T/C [21] of 32.1%. The viability, T/C [22] was 27.7%, the viability, T/C [23] was 21.2% and the viability, T/C [24] was 11%. The viability, T/C [25] was 27.3%, the viability, T/C [26] was 30.2% and the viability, T/C [27] was 25.7%. It also gave a viability, T/C [28] of 20.8%, a viability, T/C [29] of 16.5% and a viability, T/C [30] of 9.29%. The viability, T/C [31] was 29.8%, the viability, T/C [32] was 25.2% and the viability, T/C [33] was 23.3%. For the same molecule, the viability, T/C [34] was 17.3%, the viability, T/C [35] was 13.4% and the viability, T/C [36] was 10.7%.
